# Test results as given in US20230355678A1, “METHODS FOR IMPROVING T CELL EFFICACY” (IMMATICS US, INC., priority 2022, published 2023).
# Entries after “also recorded” stand apart in the source; their conditions may differ. Read-outs that look alike come from different tables or passages of the source.
# Experiments:
# transduced T cells [1] = test: Memory T cell phenotype by flow cytometry; assay type: cell-based; conditions: for CD28+CD62L+ cells (Tcm-like cells): FIG. 5; for % Tnaïve cells / TemRA cells: vs other treatments and control (no HDACi), FIG. 4
# Experimental: Phenotypes of transduced T cells treated with different HDACi were determined by flow cytometry gated on CD3+CD8+ TCR+ cells. […] No major difference in immune-checkpoint-inhibitor (ICI) marker expression was observed.
# Using Panobinostat as example, phenotypes of T cell products prepared by Panobinostat treatment on Day 0 (activation), Day 1 (transduction), or Day 2 (feeding) were determined.
# (§1) On Day 1, the activated CD4/CD8-selected cells were transduced with Lentiviral vectors expressing a target-specific exogenous TCR. On Day 2, the culture media were removed and the transduced cells were fed with fresh media in the absence of Panobinostat, SAHA+IL-21, and AKTi VIII and in the presence of cytokines, for cell expansion. On Day 7-Day 10, cells were harvested and cryopreserved for harvest metrics, phenotypic analysis, and functional studies including Incucyte tumor serial killing assay, cytokine production, and exhaustion analysis. To test the effects of TKi, e.g., dasatinib, on T cell products, dasatinib was added on Day 2 (5 nM) and Day 5 (10 nM) during feeding and expansion.
# (§2) On Day 0, thawed and rested CD4/CD8-selected cells were activated in the presence of anti-CD3/anti-CD28 antibodies. On Day 1, the activated CD4/CD8-selected cells were transduced with Lentiviral vectors expressing a target-specific exogenous TCR and exogenous CD8 molecules. On Day 2, the culture media were removed and the transduced cells were fed with fresh media containing cytokines for cell expansion. Dasatinib was added on Day 2 or on Day 5. On Day 7-Day 10, cells were harvested and cryopreserved for harvest metrics, phenotypic analysis, and functional studies including Incucyte tumor serial killing assay, cytokine production, and exhaustion analysis.
# transduced T cells [2] = test: Transduction efficiency by flow cytometry gated on CD3+CD8+ TCR+ cells; assay type: cell-based; set-up: % CD8+ T cells / % CD8+ TCR+ cells (transduction efficiency): unit of the concentration uncertain; conditions: for % CD8+ TCR+ T cells (transduction efficiency) / total number of T cell products with CD8+ TCR+ T cells: vs untreated control; for % CD8+ T cells / % CD8+ TCR+ cells (transduction efficiency): FIG. 3
# Experimental: Transduction efficiency of transduced T cells treated with different HDACi were determined by flow cytometry gated on CD3+CD8+ TCR+ cells.
# as §1, §2
# transduced T cells [3] = test: Fold expansion and manufacturing metrics of T cell products; assay type: cell-based; set-up: fold expansion: unit of the concentration uncertain; conditions: for fold expansion of T cell products: vs untreated control; for fold expansion: FIG. 2B
# Experimental: (§3) (DMSO low concentration=low volume=0.00001%; vehicle control for Panobinostat at low concentration (1 nM); DMSO high concentration=high volume=1.5%; vehicle control for valproic acid at high concentration (1.5 mM); all except Na butyrate (water) were dissolved in DMSO)
# as §1, §2
# UACC257 = test: Tumor cell killing by T cell products (Incucyte tumor serial killing assay); assay type: cell-based; conditions: expansion in the presence of dasatinib; TCR normalized T cells:UACC257-RFP=3:1; n=3 healthy donors; vs Panobinostat or AKTi VIII and controls; FIG. 28A, 29A-C
# Text: as §1
# T cell products prepared by activating T cells obtained from three patients (n=3) in the presence of Panobinostat, SAHA+IL-21, or AKTi VIII were compared with regards to tumor killing activity when contacting target cells, e.g., UACC257, which express a report gene encoding red florescent protein (RFP), with E:T=3:1. TCR-positive cells were normalized.
# (n=3 healthy donors; TCR normalized T cells:UACC257-iRFP=3:1).
# transduced T cells [4] = test: Exhaustion / inhibitory receptor (ICI) marker expression of T cell products; assay type: cell-based
# Experimental: The sustained expression of multiple inhibitory receptors may be the hallmark of exhausted T cells. Common to both CD4+ and CD8+ exhausted T cells may be the surface expression of multiple inhibitory receptors, e.g., 2B4, 4-1BB, CD39, CD69, LAG3, PD-1, TIGIT, and TIM3. Expression of these inhibitory receptors in T cell products prepared by Panobinostat treatment at different time was determined. […] Panobinostat treatment on Day 0 increased % PD-1+ cells in T cell products as compared with other treatments and control.
# CD39 may be considered as a marker for exhausted T cells, e.g., CD8+ T cells, in cancer. CD69 is a membrane-bound, type II C-lectin receptor and may be considered as an early marker of lymphocyte activation due to its rapid appearance on the surface of the plasma membrane after stimulation. […] Dasatinib may have little effect on % of terminally differentiated CD39-positive state (CD39+CD69+) and % of CD69+ state in T cell products.
# Common to both CD4+ and CD8+ exhausted T cells may be the surface expression of multiple inhibitory receptors including 2B4, 4-1BB, CD39, CD69, LAG3, PD-1, TIGIT, and TIM-3.
# transduced T cells [5] = test: Viability of T cell products; set-up: viability of transduced T cells: dose or concentration left out as unconfirmed; conditions: for viability of transduced T cells: Day 7, vs controls (no HDACi and DMSO), FIG. 2A
# Experimental: as §3
# [6] = dasatinib (10 nM) on Day 2 or Day 5, vs untreated control, FIG. 23C
# [7] = dasatinib (5 nM) on Day 2 compared with dasatinib (10 nM) on Day 5, FIG. 25A
# [8] = dasatinib (10 nM) on Day 2 or Day 5, FIG. 23B
# [9] = dasatinib added Day 2 (5 nM) and Day 5 (10 nM) during feeding and expansion, vs untreated control, FIG. 25A
structure (smiles),measurement,setting,value
O=C(CCCCCCNC(=O)c1cnc(N(c2ccccc2)c2ccccc2Cl)nc1)NO [ACY-241],CD28+CD62L+ cells (Tcm-like cells),transduced T cells [1]; 100 nM,more CD28+CD62L+ cells; also recorded: increased
same,% Tnaïve cells,transduced T cells [1]; 100 nM,most % Tnaïve cells; also recorded: most naïve cells
same,TemRA cells,transduced T cells [1]; 100 nM,least TemRA cells
"Cc1nc(Nc2ncc(C(=O)Nc3c(C)cccc3Cl)s2)cc(N2CCN(CCO)CC2)n1 [Dasatinib, dasatinib]",% CD8+ TCR+ T cells (transduction efficiency),"transduced T cells [2]; dasatinib added Day 2 (5 nM) and Day 5 (10 nM) during feeding and expansion, FIG. 24B",higher
same,total number of T cell products with CD8+ TCR+ T cells,"transduced T cells [2]; dasatinib added Day 2 (5 nM) and Day 5 (10 nM) during feeding and expansion, FIG. 24C",little effect
same,% CD8+ TCR+ T cells (transduction efficiency),"transduced T cells [2]; dasatinib on Day 2 (10 nM or 100 nM) or Day 5 (10 nM or 100 nM), FIG. 22B",higher
same,total number of T cell products with CD8+ TCR+ T cells,"transduced T cells [2]; expansion in the presence of dasatinib, FIG. 22C",little effect
same,"Manufacturing metrics (expansion, viability, yield)","transduced T cells [3]; Acceptable range ≥Control, Table 5 summary grade",=
same,fold expansion of T cell products,"transduced T cells [3]; dasatinib added Day 2 (5 nM) and Day 5 (10 nM) during feeding and expansion, FIG. 24A",little effect
same,fold expansion of T cell products,"transduced T cells [3]; dasatinib on Day 2 (10 nM or 100 nM) or Day 5 (10 nM or 100 nM), FIG. 22A",little effect
same,tumor killing activity,UACC257,significantly better tumor killing activity
same,"% 2B4+, % Cd69+, and % TIM-3+ cells in T cell products","transduced T cells [4]; dasatinib (10 nM) on Day 2 or Day 5, vs Panobinostat or AKTi VIII or untreated control, FIG. 27A",decreased
same,MFI of 4-1BB and TIM-3 in T cell products,"transduced T cells [4]; dasatinib (10 nM) on Day 2 or Day 5, vs Panobinostat or AKTi VIII or untreated control, FIG. 27B",decreased
same,% of T cell products with differentiated CD39+ state (CD39+),transduced T cells [4]; [6],slightly higher
same,% of T cell products with memory-progenitor CD39− negative stem-like phenotype (CD39−CD69−),transduced T cells [4]; [6],slightly less
same,% of terminally differentiated CD39-positive state (CD39+CD69+) and % of CD69+ state,"transduced T cells [4]; dasatinib, FIG. 23C",little effect
same,phenotype,transduced T cells [1]; Dasatinib-treated cells vs untreated cells,Better Phenotype
same,Ranking of T cell products from the most Tnaive and the least TemRA to the least Tnaive and the most TemRA,"transduced T cells [1]; comparative study, FIG. 25A-B",dasatinib (5 nM) on Day 2 >dasatinib (10 nM) on Day 5 >AKTi VIII >Panobinostat
same,% TemRA in T cell products,transduced T cells [1]; [7],less
same,% Tnaive in T cell products,transduced T cells [1]; [7],more
same,expression of CD27,"transduced T cells [1]; dasatinib (10 nM) on Day 2 or Day 5, FIG. 23A",Little effect
same,% Tnaive in T cell products,transduced T cells [1]; [8],less
same,% of differentiated TemRA,transduced T cells [1]; [8],less
same,% CD62L+ and % CD28+CD62L+ cells in T cell products,"transduced T cells [1]; dasatinib (10 nM) on Day 2 or Day 5, vs Panobinostat, SAHA+IL-21, AKTi VIII or untreated control, FIG. 26A",increased
same,MFI of CD27 and CD62L in T cell products,"transduced T cells [1]; dasatinib (10 nM) on Day 2 or Day 5, vs Panobinostat, SAHA+IL-21, AKTi VIII or untreated control, FIG. 26B",increased
same,expression of Tnaive and Tcm markers CD28 and CD62L,"transduced T cells [1]; dasatinib (10 nM) on Day 2 or Day 5, vs untreated control, FIG. 23A",increased
same,% TemRA in T cell products,transduced T cells [1]; [9],decreased
same,% Tnaive in T cell products,transduced T cells [1]; [9],increased
same,number of Tnaive in T cell products,"transduced T cells [1]; dasatinib added Day 2 (5 nM) and Day 5 (10 nM) during feeding and expansion, vs untreated control, FIG. 25B",increased
"Nc1ccccc1NC(=O)c1ccc(CNC(=O)OCc2cccnc2)cc1 [Entinostat, entinostat]",% CD8+ T cells,transduced T cells [2]; 2 (unit uncertain),reduced % CD8+ T cells
same,% CD8+ TCR+ cells (transduction efficiency),transduced T cells [2]; 2 (unit uncertain),reduced % CD8+ TCR+ cells
same,fold expansion,transduced T cells [3]; 2 (unit uncertain),reduced fold expansion
same,toxicity to T cells,transduced T cells [5],highly toxic
same,viability of transduced T cells,transduced T cells [5],reduced T cell viability
"O=C(CCCCCCC(=O)Nc1ccccc1)NO [SAHA, suberanilohydroxamic acid]",CD28+CD62L+ cells (Tcm-like cells),transduced T cells [1]; 50 nM,more CD28+CD62L+ cells; also recorded: increased
same,% Tnaïve cells,transduced T cells [1]; 50 nM,most % Tnaïve cells; also recorded: most naïve cells
same,TemRA cells,transduced T cells [1]; 50 nM,least TemRA cells
CCCC(=O)[O-].[Na+] [Sodium butyrate],% CD8+ T cells,transduced T cells [2]; 2 (unit uncertain),reduced % CD8+ T cells
same,% CD8+ TCR+ cells (transduction efficiency),transduced T cells [2]; 2 (unit uncertain),reduced % CD8+ TCR+ cells
same,fold expansion,transduced T cells [3]; 2 (unit uncertain),reduced fold expansion
same,viability of transduced T cells,transduced T cells [5],reduced T cell viability
same,toxicity to T cells,transduced T cells [5]; summary of Example 2,highly toxic
CCCC(CCC)C(=O)O [valproic acid],% CD8+ T cells,transduced T cells [2]; 1.5 (unit uncertain),reduced % CD8+ T cells
same,fold expansion,transduced T cells [3]; 1.5 (unit uncertain),reduced fold expansion
same,toxicity to T cells,transduced T cells [5],highly toxic
